From ChEMBL document CHEMBL2331519, “Sesquiterpenes from the rhizomes of Curcuma heyneana” (J Nat Prod, 2013) come the findings set out here.

By inhibition is commonly meant the change of the read-out against control, counted positive when it falls. As a reminder, the IC50 is the midpoint of a concentration-inhibition curve.

Each structure is given as a SMILES string. Some results are limits rather than exact numbers.

For assay [1], the target named is T1, Tyrosine-protein phosphatase non-receptor type 1 (Homo sapiens) (UniProt P18031).
T1 sequence (whole entry): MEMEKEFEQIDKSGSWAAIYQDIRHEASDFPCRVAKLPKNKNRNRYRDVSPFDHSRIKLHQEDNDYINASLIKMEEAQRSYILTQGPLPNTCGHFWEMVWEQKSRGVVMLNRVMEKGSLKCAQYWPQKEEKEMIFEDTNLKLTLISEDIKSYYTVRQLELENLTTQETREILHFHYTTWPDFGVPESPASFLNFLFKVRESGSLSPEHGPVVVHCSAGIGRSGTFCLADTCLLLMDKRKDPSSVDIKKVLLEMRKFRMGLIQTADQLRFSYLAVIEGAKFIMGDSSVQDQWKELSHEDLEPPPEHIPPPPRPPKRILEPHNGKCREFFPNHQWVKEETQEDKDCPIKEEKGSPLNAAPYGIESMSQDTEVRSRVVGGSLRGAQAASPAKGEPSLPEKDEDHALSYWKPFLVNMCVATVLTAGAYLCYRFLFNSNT
Put plainly: Inhibition of PTP1B (unknown origin) assessed as decrease in p-nitrophenol production from pNPP substrate at 25 ug/ml after 30 mins by HTS7000 bioassay reader analysis.

The target of assay [2] is T2, Tyrosine-protein phosphatase non-receptor type 2 (Homo sapiens, UniProt P17706).
T2 sequence (P17706 whole entry): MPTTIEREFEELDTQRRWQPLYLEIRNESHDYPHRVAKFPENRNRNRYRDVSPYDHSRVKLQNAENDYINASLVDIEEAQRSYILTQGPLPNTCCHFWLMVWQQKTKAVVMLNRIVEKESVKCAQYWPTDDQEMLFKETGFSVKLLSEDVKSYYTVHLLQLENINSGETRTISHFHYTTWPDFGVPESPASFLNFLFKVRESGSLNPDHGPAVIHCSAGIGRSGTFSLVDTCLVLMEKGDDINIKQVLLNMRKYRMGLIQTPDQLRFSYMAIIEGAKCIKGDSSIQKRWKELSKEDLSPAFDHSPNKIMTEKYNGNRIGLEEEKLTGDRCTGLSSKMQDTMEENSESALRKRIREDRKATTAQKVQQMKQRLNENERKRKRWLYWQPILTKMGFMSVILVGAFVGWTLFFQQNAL
Put plainly: (§1) Inhibition of TCPTP (unknown origin) assessed as decrease in p-nitrophenol production from pNPP substrate after 30 mins by HTS7000 bioassay reader analysis.

Assay [3] addresses T3, Tyrosine-protein phosphatase non-receptor type 1 (Homo sapiens, UniProt P18031).
T3 sequence (P18031 whole entry): T1 sequence (whole entry)
Put plainly: Inhibition of PTP1B (unknown origin) assessed as decrease in p-nitrophenol production from pNPP substrate after 30 mins by HTS7000 bioassay reader analysis.

The target in assay [4] is T4, Tyrosine-protein phosphatase non-receptor type 2 (Homo sapiens) (UniProt P17706).
T4 sequence (whole entry): T2 sequence (P17706 whole entry)
The assay is described as §1.

On to `CC1=CC(=O)[C@@]2(C[C@]3(O)[C@@H](C)CC[C@@H]13)OC2(C)C`, for which the inhibition in assay [1] is below 65%.
For `CCCCCCCCCCCCCCCC(=O)C1=C(O)[C@@H](CO)OC1=O`, the IC50 in assay [2] was determined as 5.1 µM; in assay [3], 5.62 µM. The inhibition in assay [1] turned out to be 99.1%.
As for `CC(C)=C1C[C@@H](O)[C@@](C)(O)CC[C@H](O)/C(C)=C\C1=O` [HEYNEANONE A], the values for the inhibition entry in assay [4] and in assay [1] were “Dose-dependent effect” and 77.5%, respectively. Further, the values for the IC50 in assay [2] and in assay [3] were 62 µM and 42.5 µM, respectively.
Take `C=C1C[C@]2(O)O[C@@]3(CC2=C(C)C)[C@@H](C)CC[C@@H]13`: in assay [1], the inhibition was below 65%.
Regarding `C=C(C)[C@H]1CC[C@@](C)(O)[C@H]2CC[C@](C)(O)[C@H]2C1`, the inhibition in assay [1] was below 65%.
Consider `CC(C)=C1C[C@H]2[C@@H](CC[C@]2(C)O)C(CO)=CC1=O`, for which the inhibition in assay [1] was below 65%.
For the molecule `C=C(C)[C@H]1CC[C@H](C)[C@]12CC(=C(C)C)C(=O)O2`, the inhibition in assay [1] is below 65%.
Take `CC1=CC(=O)C(=C(C)C)C[C@H]2[C@H]1CC[C@]2(C)O` [PROCURCUMENOL]: the inhibition result in assay [4] is “Dose-dependent effect”; in assay [1], 69.3%. Also, the IC50 turned out to be 26.8 µM in assay [2] and 45.6 µM in assay [3].
With `C=C(C)[C@@H]1CC[C@]2(C)OC(=O)C(=C(C)C)C[C@@H]12`, in assay [1], the inhibition is below 65%.
Still for that read-out and setting: as for `C=C(C)[C@@H]1CC[C@@]2(C)[C@H](O)CC[C@@](C)(O)[C@@H]2C1`, the figure is below 65%; as for `C=C(C)[C@@H]1CC[C@H](C)[C@@]12C=C(C(C)(C)O)C(=O)O2`, below 65%.
`CC(C)=C1C[C@H]2[C@H](CC[C@]2(C)O)[C@@](C)(O)CC1=O`: in assay [1], the inhibition is below 65%.
For the molecule `C=C1CC[C@H]2C(C)(C)CCC[C@]2(C)[C@H]1C/C=C(\C=O)CC(=O)O` [ZERUMIN A], the inhibition entry is “Dose-dependent effect” in assay [4] and 96.7% in assay [1]. Besides, the IC50 was 7.4 µM in assay [2] and 10.4 µM in assay [3].
Turning to `CC(C)=C1C[C@@H](O)[C@@](C)(O)CC[C@@H](O)/C(C)=C\C1=O` [HEYNEANONES C], the inhibition entry in assay [4] is “Dose-dependent effect”; in assay [1], 86.2%. Also, the values for the concentration for half-maximal inhibition (IC50) in assay [2] and in assay [3] were 36.7 µM and 35.2 µM, respectively.
On to `C=C(C)[C@@H]1CC[C@](C)(O)[C@H]2CC[C@](C)(O)[C@H]2C1`, for which the inhibition in assay [1] is below 65%.
Regarding `C[C@H]1[C@H](C)CC[C@]2(C(=O)O)CC[C@]3(C)C(=CC[C@@H]4[C@@]5(C)CC[C@H](O)C(C)(C)[C@@H]5CC[C@]43C)[C@H]12` [URSOLIC ACID], the IC50 in assay [2] is 2.4 µM. In addition, the inhibition in assay [1] came out at 96.7%.
Consider `C=C(C)[C@@H]1CC[C@H](C)[C@]12CC(=C(C)C)C(=O)O2`, for which, in assay [1], the inhibition was below 65%.
Turning to `CC(C)=C1C[C@@H](O)[C@](C)(O)CC[C@H](O)/C(C)=C\C1=O`, the inhibition in assay [1] is below 65%.
In the case of `CC1=C[C@@]2(O)O[C@@]3(C/C2=C(/C)CO)[C@@H](C)CC[C@@H]13`, the inhibition in assay [1] was below 65%.
`CC1=CC(=O)C(=C(C)C)C[C@@H]2[C@@](C)(O)CC[C@]12O` [AERUGIDIOL]: the inhibition entry in assay [4] was “Dose-dependent effect”; in assay [1], 87.5%. The values for the IC50 in assay [2] and in assay [3] were 45.9 µM and 35.7 µM, respectively.
As for `C=C(C)[C@@H]1CC[C@@H](C)[C@@]12C=C(C(C)(C)O)C(=O)O2`, the inhibition in assay [1] was below 65%.
As for `CC(C)=C1C[C@H]2[C@@H](CC[C@@]2(C)O)[C@@](C)(O)CC1=O`, the inhibition result in assay [4] was “Dose-dependent effect”; in assay [1], 86%. Also, the IC50 is 15.7 µM in assay [2] and 35.1 µM in assay [3].
For the molecule `C=C1CC[C@H]2C(C)(C)CCC[C@]2(C)[C@H]1/C=C/C(C)=O`, the inhibition entry in assay [4] was “Dose-dependent effect”; in assay [1], 88.8%. Also, the IC50 in assay [2] was determined as 9.3 µM; in assay [3], 14.7 µM.
For the molecule `C=C(C)[C@@H]1CC[C@@]2(C)OC(=O)C(=C(C)C)C[C@@H]12`, in assay [1], the inhibition was below 65%.
As for `CC(C)=C1C[C@H]2[C@@H](CC[C@]2(C)O)[C@](C)(O)CC1=O`, the inhibition in assay [1] is below 65%.
As for `C/C1=C/C(=O)/C(C(C)(C)O)=C\C=C(\C)C(=O)CC1`, the inhibition in assay [1] was below 65%.
